Reference: patent US10577315B2, “Compositions and methods for treatment of prostate carcinoma” (Pellficure Pharmaceuticals, Inc., priority 2014, dated 2020)

Legend:
Type in all cases: cell-based
[1] = test system: PTEN-P2/GFP prostate cancer cells; assay: Effect of 1,4-naphthoquinone analogs on PTEN-P2/GFP cell proliferation (WST-1 cell viability, 24 h); conditions: Mus musculus, WST-1, medium with 10% FBS and DHT, read-out: PTEN-P2/GFP cell proliferation, percent of control
Procedure: Cells are grown in phenol red-free DMEM medium containing 10% FBS, 2 mM L-glutamine, 100 U/ml penicillin/100 μg/ml streptomycin, insulin-selenium-transferrin (5 μg/ml insulin), and DHT 10^−8M final. Androgen withdrawal is achieved by not adding DHT to the medium. Cells are maintained in a humidified incubator at 37° C. and 5% CO2. G418 (100 μg/ml) is added to maintain stable expression of H2B-GFP.
(§1) 100 microliters of PTEN-P2/GFP prostate cancer cells were plated at a density of 8000 cells/well in 96-well plates (triplicates) in growing medium containing 10% Fetal Bovine Serum and DHT. The next day, increasing concentrations of a 1,4-naphthoquinone analog (diluted from 10 mM DMSO stock solutions) were added. DMSO used as solvent for all analogs, was kept constant through the 96-well plates. The control consisted of DMSO alone. The cells were subsequently incubated for 24 hours at 37° C. and 5% CO2 in normal cell growth conditions. Cell viability was assessed by adding 9 μL/well of WST-1 reagent (Clontech), which measured mitochondrial activity of live cells. […] The incubation time was 3 hours at 37° C. Optical density of the cell samples was measured at 460 nm, by using plate reader Spectra Max 250 (Molecular Devices). The drug was determined to be cytotoxic when OD values show an inverse correlation with analog concentrations. The results are shown in TABLES 3.1-3.4, FIGS. 2A-2E, and FIGS. 3A-3D.

[2] = test system: human breast cancer SKBR-3 cells; assay: Dose response of 1,4-naphthoquinone analogs in human breast cancer cells SKBR-3 (WST-1, 24 h)
Procedure: as §1, with “human breast” for “PTEN-P2/GFP prostate”, “cancer SKBR-3” for “cancer”, “Serum, penicillin/streptomycin,” for “Serum”, “glutamine.” for “DHT.”, “concentrations.” for “concentrations. The results are shown in TABLES 3.1-3.4, FIGS. 2A-2E, and FIGS. 3A-3D.”

[3] = test system: human fibrosarcoma HT1080 cells; assay: Dose response of 1,4-naphthoquinone analogs in human fibrosarcoma cells HT1080 (WST-1, 24 h)
Procedure: as §1, with “human fibrosarcoma HT1080” for “PTEN-P2/GFP prostate cancer”, “Serum, penicillin/streptomycin,” for “Serum”, “glutamine.” for “DHT.”, “concentrations.” for “concentrations. The results are shown in TABLES 3.1-3.4, FIGS. 2A-2E, and FIGS. 3A-3D.”

Structure (SMILES) | activity at 2 µM [1] | activity at 3 µM [1] | activity at 4 µM [1] | activity at 5 µM [1] | activity at 6 µM [1] | activity at 7 µM [1] | activity at 10 µM [1] | activity at 15 µM [1] | activity at 25 µM [1] | human SKBR-3 cell proliferation, percent of control ([2]; 1.2 μM) | human SKBR-3 cell proliferation, percent of control ([2]; 2.5 μM) | human SKBR-3 cell proliferation, percent of control ([2]; 5 μM) | human SKBR-3 cell proliferation, percent of control ([2]; 7.5 μM) | human SKBR-3 cell proliferation, percent of control ([2]; 10 μM) | human SKBR-3 cell proliferation, percent of control ([2]; 15 μM) | human SKBR-3 cell proliferation, percent of control ([2]; 20 μM) | proliferation of human fibrosarcoma HT1080 cells, percent of control ([3]; 1.2 μM) | proliferation of human fibrosarcoma HT1080 cells, percent of control ([3]; 2.5 μM) | proliferation of human fibrosarcoma HT1080 cells, percent of control ([3]; 5 μM) | proliferation of human fibrosarcoma HT1080 cells, percent of control ([3]; 7.5 μM) | further results
O=C1C=C(Oc2ccccc2)C(=O)c2ccccc21 [Analog F01, 2-phenoxy-1,4-naphthoquinone] | 91.7% | 77.9% | 63.4% | 43.1% | 30.9% | 24.1% | 13.2% | 9.77% | 9.86% | 99.47% of control | 105.05% of control | 85.33% of control | 61.15% of control | 4.30% of control | 1.90% of control | 2.19% of control | 85.21% of control | 81.88% of control | 66.22% of control | 73.66% of control | proliferation of human fibrosarcoma HT1080 cells, percent of control ([3]; 10 μM): 69.05% of control; proliferation of human fibrosarcoma HT1080 cells, percent of control ([3]; 15 μM): 41.07% of control; proliferation of human fibrosarcoma HT1080 cells, percent of control ([3]; 20 μM): 18.29% of control
O=C1C=C(Oc2c(F)c(F)c(F)c(F)c2F)C(=O)c2ccccc21 [Analog F02, 2-(2,3,4,5,6-pentafluorophenoxy)-1,4-naphthoquinone] | 97.9% | 94.8% | 93.3% | 90.3% | 82.6% | 74.3% | 47.6% | 28.7% | 12.3% | 107.66% of control | 116.47% of control | 107.37% of control | 94.47% of control | 75.45% of control | 35.60% of control | 3.02% of control | 84.28% of control | 82.46% of control | 82.96% of control | 76.72% of control | proliferation of human fibrosarcoma HT1080 cells, percent of control ([3]; 10 μM): 74.71% of control; proliferation of human fibrosarcoma HT1080 cells, percent of control ([3]; 15 μM): 65.17% of control; proliferation of human fibrosarcoma HT1080 cells, percent of control ([3]; 20 μM): 63.04% of control
CC(=O)Nc1ccc(OC2=CC(=O)c3ccccc3C2=O)cc1 [Analog F03, 2-(4-acetamidophenoxy)-1,4-naphthoquinone] | 97.8% | 97.1% | 97.1% | 97.1% | 85% | 76.2% | 43% | 20% | 9.61% | 88.89% of control | 87.44% of control | 64.41% of control | 36.88% of control | 7.32% of control | 1.24% of control | 1.57% of control | 81.33% of control | 85.67% of control | 74.59% of control | 72.11% of control | proliferation of human fibrosarcoma HT1080 cells, percent of control ([3]; 10 μM): 75.09% of control; proliferation of human fibrosarcoma HT1080 cells, percent of control ([3]; 15 μM): 55.37% of control; proliferation of human fibrosarcoma HT1080 cells, percent of control ([3]; 20 μM): 38.21% of control
O=C1C=C(Oc2c(F)cc(F)cc2F)C(=O)c2ccccc21 [Analog F04, 2-(2,4,6-trifluorophenoxy)-1,4-naphthoquinone] | – | – | – | 83.3% | – | – | 2.09% | 1.47% | – | 86.74% of control | 83.72% of control | 74.38% of control | 65.90% of control | 7.52% of control | 1.20% of control | 1.90% of control | 87.77% of control | 81.64% of control | 78.43% of control | 84.86% of control | activity at 1.2 µM ([1]; 1.2 μM): 101%; activity at 2.5 µM ([1]; 2.5 μM): 101%; activity at 7.5 µM ([1]; 7.5 μM): 17.6%; activity at 20 µM ([1]; 20 μM): 2.64%; proliferation of human fibrosarcoma HT1080 cells, percent of control ([3]; 10 μM): 76.41% of control; proliferation of human fibrosarcoma HT1080 cells, percent of control ([3]; 15 μM): 69.17% of control; proliferation of human fibrosarcoma HT1080 cells, percent of control ([3]; 20 μM): 63.51% of control
COc1ccc(OC)c2c1C(=O)C=CC2=O [Analog F52, 5,8-dimethoxy-1,4-naphthoquinone] | 108% | 112% | 113% | 111% | 106% | 93.3% | 52.1% | – | 11.2% | – | – | – | – | – | – | – | – | – | – | – | activity at 1 µM [1]: 106%; activity at 50 µM [1]: 11.9%
CCOC1=CC(=O)c2ccccc2C1=O [Analog F53, 2-ethoxy-1,4-naphthoquinone] | 91.8% | 89.9% | 93.2% | 93.7% | 92.5% | 93.4% | 94.1% | – | 28.6% | – | – | – | – | – | – | – | – | – | – | – | activity at 1 µM [1]: 94%; activity at 50 µM [1]: 12.9%
O=C1C(Br)=C(Oc2ccc(OC3=C(Br)C(=O)c4ccccc4C3=O)cc2)C(=O)c2ccccc21 [Analog F57, 3,3′-(1,4-phenylenebis(oxy))bis(2-bromonaphthalene-1,4-dione)] | 98.2% | 98% | 98.6% | 98.9% | 95.7% | 86.7% | 61.4% | 42.8% | 17.4% | – | – | – | – | – | – | – | – | – | – | – | –
